From patent US6888015B2, “Sphingolipid synthesis inhibitor” (Japan Science and Technology Agency, priority 2001, dated 2005) come the findings set out here.

In assay [1] the test system is transport of Cer from the ER to the Golgi apparatus. Kind of assay: Intracellular redistribution and metabolism of C5-DMB-Cer. The class given is cell-based, Chinese hamster. How it is done:
After CHO cells seeded in 60-mm dishes are cultured overnight, said CHO cells are labeled with 1 μM C5-DMB-Cer in 1.5 mL of Nutridoma medium at 4° C. for 30 minutes. Then, after obtained said cells are washed 3 times with F12 medium, said cells are incubated in Nutridoma medium in the presence or absence of 2.5 μM HPA-12 for 15 minutes at 4° C., and then further incubated at 33° C. for various periods of time.
After washed with PBS, the chased cells are lysed with 0.1% SDS as mentioned above. The lipids extracted from cell lysate are separated by high performance TLC with a solvent of chloroform/methanol/H2O (volume ratio, 65:25:4). Quantitative measurement of C5-DMB-SM and C5-DMB-Cer are performed by scraping gel from TLC plates, extracting by chloroform/methanol/H2O (volume ratio, 1:2:0.8), and by measuring DMB fluorescence (excitation wave length 480 nm, emission wave length 515 nm) of the extracted product.
After CHO cells grown on the glass coverslip (22-mm diameter) in 35 mm dishes are incubated in F12 medium containing 1 μM C5-DMB-Cer at 4[…] for 30 minutes for pulse label, washed three times with 1 mL of F12 medium, and incubated in 1 mL of Nutridoma medium in the presence or absence of 2.5 μM HPA-12 at 4° C. for 15 minutes. Then, the pulse-labeled cells are incubated at 33° C. for 15 minutes for chase, washed with PBS containing 0.125% glutaraldehyde at 4° C. for 5 minutes. […]

The subject of assay [2] is sphingosine N-acyl transferase. Kind of assay: Sphingosine N-acyl transferase activity, CHO membrane fraction. Type of assay: biochemical, Chinese hamster. The conditions noted are these: 20 μM; data not shown. How it is done:
(§1) Membrane fraction prepared from CHO cells is used as an enzyme source.
(§2) Serine palmitoyltransferase activity is determined by the method disclosed in Document 7, and sphingosine N-acyl transferase activity is determined by a modification of the method disclosed in Document 7.

Assay [3] relates to biosynthesis of phosphatidylcholine. Briefly: Metabolic labeling of lipids with [14C]choline. Type of assay: cell-based, Chinese hamster. Conditions: 1 μM, 33° C., 4 hours. On the procedure:
CHO cells are seeded at the density of 1.0×10^6 cell in 5 mL of F12 medium containing 10% NBS, by per 60-mm dish, and cultured at 33° C. overnight. Then, the medium is changed to 1.5 mL of Nutridoma medium if necessary, various drugs are added and incubated at 4° C. for 15 minutes. Then, after addition of [^14C] serine (0.75 μCi) or [^14 C] choline (1.0 μCi) to the medium, cells were incubated at 33° C. for various periods of time.
Cells are washed twice with 2 mL of cold phosphate-buffered saline (PBS), and lysed with 900 μL of 0.1% sodium dodecyl sulfate (SDS). Then, 800 μL and 20 μL of lysate are used for lipid extraction and determination of protein concentration, respectively.
For the analysis of the lipid labeled by [^14C] choline, the lipid is separated by one-dimensional TLC using chloroform/methanol/acetic acid/H2O (25:15:4:2, volume ratio) as a developing solvent. […]
Radioactive lipid separated on the TLC plates are detected with image analyzer depicted above. After the collection of gels from TLC plates by scraping, the radioactivity of each lipid is determined by liquid scintillation counting and normalized to the protein concentration of cells.

The target in assay [4] is T1, serine palmitoyltransferase (Cricetulus griseus, UniProt O54694+O54695).
T1 construct: Membrane fraction prepared from CHO cells is used as an enzyme source; endogenous in cells; host or cells: CHO cells, membrane fraction
T1 sequence (O54695 1-473): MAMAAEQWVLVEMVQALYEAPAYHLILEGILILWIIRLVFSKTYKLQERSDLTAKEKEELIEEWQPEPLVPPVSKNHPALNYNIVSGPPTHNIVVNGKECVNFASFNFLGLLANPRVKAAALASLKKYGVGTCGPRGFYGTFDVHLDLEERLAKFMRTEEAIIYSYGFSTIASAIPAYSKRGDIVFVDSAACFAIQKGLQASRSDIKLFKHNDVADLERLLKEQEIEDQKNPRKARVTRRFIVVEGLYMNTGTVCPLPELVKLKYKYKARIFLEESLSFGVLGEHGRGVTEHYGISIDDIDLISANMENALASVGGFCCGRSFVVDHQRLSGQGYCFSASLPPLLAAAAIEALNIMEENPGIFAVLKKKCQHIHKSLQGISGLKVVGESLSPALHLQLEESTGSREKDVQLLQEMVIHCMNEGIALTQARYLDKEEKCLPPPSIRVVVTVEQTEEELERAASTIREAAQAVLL
T1 sequence (O54694 1-560): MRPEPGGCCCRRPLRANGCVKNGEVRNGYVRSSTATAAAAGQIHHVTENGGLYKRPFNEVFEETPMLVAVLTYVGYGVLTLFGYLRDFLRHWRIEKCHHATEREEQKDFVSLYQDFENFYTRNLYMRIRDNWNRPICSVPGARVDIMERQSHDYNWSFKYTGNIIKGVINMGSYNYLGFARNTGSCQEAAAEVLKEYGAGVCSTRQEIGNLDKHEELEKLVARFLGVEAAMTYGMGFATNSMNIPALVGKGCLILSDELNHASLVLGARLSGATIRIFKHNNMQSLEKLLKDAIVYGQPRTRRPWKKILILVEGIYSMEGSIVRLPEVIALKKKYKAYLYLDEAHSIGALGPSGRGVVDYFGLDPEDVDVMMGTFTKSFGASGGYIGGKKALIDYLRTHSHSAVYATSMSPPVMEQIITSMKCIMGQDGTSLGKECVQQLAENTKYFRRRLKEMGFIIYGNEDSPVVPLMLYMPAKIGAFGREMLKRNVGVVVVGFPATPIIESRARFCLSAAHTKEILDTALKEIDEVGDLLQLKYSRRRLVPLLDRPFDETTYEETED
Briefly: Serine palmitoyltransferase activity, CHO membrane fraction. The class given is biochemical, Chinese hamster. The conditions noted are these: 20 μM; data not shown. On the procedure: as §1, §2

Each structure is given as a SMILES string.

`CCCCCCCCCCCC(=O)NC(CO)CC(O)c1ccccc1` (stereo not drawn) [HPA-12, N-(3-hydroxy-1-hydroxymethyl-3-phenylprol)dodecaneamide]: the “accumulation of DMB-fluorescence to the perinuclear Golgi region vs untreated control” value in assay [1] (2.5 μM, chase at 33° C. for 15 minutes) is “clearly lower”. For the same compound, the “inhibition of conversion of C5-DMB-Cer to C5-DMB-SM” value in assay [1] (HPA-12 treated cells, data not shown) is on record as 50%. The “activity of sphingosine N-acyl transferase” value in assay [2] is “does not affect”. Moreover, in assay [3], the “level of [14C]PC vs untreated cells” value is given as “almost equal” and the “level of [14C]SM vs drug-untreated control level” value is on record as “about half”. Further, the “activity of serine palmitoyltransferase” value in assay [4] is “does not affect”.
